Assay results taken from patent US20110003858A1, “MULTIMERIC HETEROCYCLIC COMPOUNDS USEFUL AS NEUTROPHIL ELASTASE INHIBITORS” (priority 2006, published 2011).

Target: T1, Human Neutrophil Elastase (HNE) (Homo sapiens, UniProt P08246)
T1 construct: Human Neutrophil Elastase (HNE) purified from serum; purchased Calbiochem 324681; host or cells: natural enzyme purified from human serum (so in the source)
T1 sequence (P08246 30-247 limits assumed): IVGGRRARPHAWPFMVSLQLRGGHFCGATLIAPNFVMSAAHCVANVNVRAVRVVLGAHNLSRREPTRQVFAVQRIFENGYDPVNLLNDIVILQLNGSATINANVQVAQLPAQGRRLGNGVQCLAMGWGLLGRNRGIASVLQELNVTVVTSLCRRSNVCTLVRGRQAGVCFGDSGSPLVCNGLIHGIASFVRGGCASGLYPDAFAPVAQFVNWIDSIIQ
Assay: Human Neutrophil Elastase Quenched-FRET Assay
Type: biochemical
Details: HNE 1.7 nM, substrate MeOSuc-AAPV-AMC 100 μM, pH 7.5; read-out: Inhibition of HNE IC50
Method: Human Neutrophil Elastase Quenched-FRET Assay
The assay uses Human Neutrophil Elastase (HNE) purified from serum (Calbiochem art. 324681; Ref. Baugh, R. J. et al., 1976, Biochemistry. 15, 836-841). HNE was stored in 50 mM sodium acetate (NaOAc), 200 mM sodium chloride (NaCl), pH 5.5 with added 30% glycerol at −20° C. The protease substrate used was Elastase Substrate V Fluorogenic, MeOSuc-AAPV-AMC (Calbiochem art. 324740; Ref. Castillo, M. J. et al., 1979, Anal. Biochem. 99, 53-64). The substrate was stored in dimethyl sulphoxide (DMSO) at −20° C. The assay additions were as follows: Test compounds and controls were added to black 96-well flat-bottom plates (Greiner 655076), 1 μL in 100% DMSO, followed by 30 μL HNE in assay buffer with 0.01% Triton (trade mark) X-100 detergent. The assay buffer constitution was: 100 mM Tris(hydroxymethyl)aminomethane (TRIS) (pH 7.5) and 500 mM NaCl. The enzyme and the compounds were incubated at room temperature for 15 minutes. Then 30 μl substrate in assay buffer was added. The assay was incubated for 30 minutes at room temperature. The concentrations of HNE enzyme and substrate during the incubation were 1.7 nM and 100 μM, respectively. […] Fluorescence was measured on a Wallac 1420 Victor 2 instrument at settings: Excitation 380 nm, Emission 460 nm. IC50 values were determined using Xlfit curve fitting using model 205.

Structure (SMILES) | IC50 [nM]
Cc1c([S+]([O-])c2ccc(C#N)cc2)cc(C(=O)NCCOCCOCCNC(=O)c2cc([S+]([O-])c3ccc(C#N)cc3)c(C)n(-c3cccc(C(F)(F)F)c3)c2=O)c(=O)n1-c1cccc(C(F)(F)F)c1 (centres unmarked) [Example 1] | 0.61
Cc1c(-c2ccnn2-c2ccc(C#N)cc2)cc(C(=O)NCC(O)CNC(=O)c2cc(-c3ccnn3-c3ccc(C#N)cc3)c(C)n(-c3cccc(C(F)(F)F)c3)c2=O)c(=O)n1-c1cccc(C(F)(F)F)c1 [Example 2, N,N′-(2-Hydroxypropane-1,3-diyl)bis(5-(1-(4-cyanophenyl)-1H-pyrazol-5-yl)-6-methyl-2-oxo-1-(3-(trifluoromethyl)phenyl)-1,2-dihydropyridine-3-carboxamide)] | 0.26
